Patent US6720346B2, “Thiazole benzamide derivatives and pharmaceutical compositions for inhibiting cell proliferation” (Agouron Pharmaceuticals, Inc., priority 2001, dated 2004)
Counter-ions that a name gives are not always drawn.

Legend:
CDK2/cyclin A = biological target: T1, CDK2/cyclin A (Homo sapiens, UniProt P24941); assay: Inhibition of CDK2/cyclin A retinoblastoma kinase activity (Ki; % inhibition); type: biochemical; conditions: apparent Ki, CDK2/cyclin A, Rb substrate
T1 construct: made in house; host or cells: CDK2: insect cells (baculovirus); cyclin A: E. coli
Outline: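 Radiometric filter assay of CDK2/proteolyzed cyclin A (baculovirus-expressed human CDK2, 10 or 19 nM) phosphorylating an Rb fragment with 25 μM [³²P/³³P]ATP in pH 7.4 HEPES, 2% DMSO, at 30 °C for 60 or 75 min under initial-rate conditions. Library compounds screened at 30 nM for % inhibition; apparent Ki from concentration series fit to competitive or tight-binding inhibition equations.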

human CDK4/cyclin D3 = biological target: T2, human CDK4/cyclin D3 (Homo sapiens, UniProt P11802); assay: Inhibition of CDK4/cyclin D retinoblastoma kinase activity (Ki; % inhibition); type: biochemical; conditions: apparent Ki, CDK4/cyclin D3, Rb substrate
T2 construct: made in house; host or cells: insect cells co-infected with baculovirus vectors
T2 sequence (P11802 whole entry): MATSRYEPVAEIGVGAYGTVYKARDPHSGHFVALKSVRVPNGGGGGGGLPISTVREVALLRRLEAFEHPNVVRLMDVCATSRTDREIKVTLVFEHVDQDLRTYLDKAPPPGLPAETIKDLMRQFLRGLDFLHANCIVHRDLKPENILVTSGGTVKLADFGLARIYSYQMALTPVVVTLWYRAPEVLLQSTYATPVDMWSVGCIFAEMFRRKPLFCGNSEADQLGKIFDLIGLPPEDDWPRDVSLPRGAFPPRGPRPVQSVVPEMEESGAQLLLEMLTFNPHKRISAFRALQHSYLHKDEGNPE
T2 sequence (P30281 1-264 partner limits assumed): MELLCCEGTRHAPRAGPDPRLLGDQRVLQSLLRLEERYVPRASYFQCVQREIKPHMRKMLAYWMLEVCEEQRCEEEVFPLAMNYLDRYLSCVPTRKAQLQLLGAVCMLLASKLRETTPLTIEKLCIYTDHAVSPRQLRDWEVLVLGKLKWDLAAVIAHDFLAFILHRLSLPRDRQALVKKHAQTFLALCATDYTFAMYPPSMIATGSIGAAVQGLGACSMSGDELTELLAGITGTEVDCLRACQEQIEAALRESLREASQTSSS
Outline: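 Insect-cell-expressed CDK4 with truncated cyclin D3 (1-264), 5 nM, phosphorylating His-tagged Rb fragment (386-928) with 25 μM [32/33P]ATP at pH 7.4, 30 °C, 20 min (60 min for tight binders). Filter capture, phosphorimager read; % inhibition at 30 nM compound, Ki from competitive or tight-binding fits.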

HCT-116 cell line = assay: Inhibition of cell growth, MTT tetrazolium salt assay; type: cell-based; conditions: Homo sapiens, HCT-116, 120 h; MTT, three to five days
Outline: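 Growth inhibition was read as MTT-formazan absorbance at 540 nm, after 4 h with 0.2 mg/mL MTT. Before that, HCT-116 cells had been exposed 3–5 days at 37 °C to compounds in 0.5% (v/v) DMSO, added 4 h after plating. 50% and 90% inhibitory concentrations were taken from semi-log concentration–inhibition plots versus vehicle controls.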

[1] = biological target: T3, Phosphorylated FGF receptor kinase (FGFR1 cytosolic domain) (Homo sapiens, UniProt P11362, C488A/C584S/L457V); assay: Inhibition of phosphorylated FGF receptor tyrosine kinase activity (coupled spectrophotometric assay); type: biochemical; conditions: read-out: P-FGF % Inhibition at 1 μM
T3 construct: FGFR1 tyrosine kinase (amino acids 456-766); made in house; host or cells: Sf9 insect cells (baculovirus)
T3 sequence (P11362 456-766 L457V/C488A/C584S): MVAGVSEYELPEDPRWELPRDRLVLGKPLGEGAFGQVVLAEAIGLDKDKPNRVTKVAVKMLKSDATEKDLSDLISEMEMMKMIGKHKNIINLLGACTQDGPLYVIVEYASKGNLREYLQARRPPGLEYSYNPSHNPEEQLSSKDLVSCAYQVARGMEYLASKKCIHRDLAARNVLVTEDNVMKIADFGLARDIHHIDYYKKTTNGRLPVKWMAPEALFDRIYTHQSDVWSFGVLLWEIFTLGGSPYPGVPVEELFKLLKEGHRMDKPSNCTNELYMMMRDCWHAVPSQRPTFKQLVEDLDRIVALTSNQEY
Procedure: (§1) Cloning, expression and purification of the cytosolic domain of FGFR1 tyrosine kinase (amino acids 456-766) containing three amino acid substitutions (L457V, C488A, and C584S) were conducted as previously described (Mohammadi, M., Schiessinger, J., & Hubbard, S. R. Cell, 86, (1996) 577-587). This domain was expressed in Sf9 insect cells using a baculovirus expression vector, and protein was purified using conventional techniques. The LCK tyrosine kinase was expressed in insect cells as an N-terminal deletion starting from amino acid 223 to the end of the protein at amino acid 509. The N-terminus of the protein also had two amino acid substitutions, P223M and C224D. Kinases were purified using conventional chromatographic methods.
(§2) Tyrosine kinase activity was measured using a coupled, continuous spectrophotometric assay, in which production of phosphorylated poly(Glu,Tyr; 4:1) substrate and ADP is coupled to the pyruvate kinase-catalyzed transfer of a phosphate from phosphoenolpyruvate to ADP, with generation of pyruvate and regeneration of ATP. Pyruvate production is in turn coupled to the lactate dehydrogenase-catalyzed reduction of pyruvate to form lactate, with concomitant conversion of NADH to NAD^+. Loss of NADH is monitored by measuring absorbance at 340 nm (see e.g., Technikova-Dobrova et al., “Spectrophotometric Determination of Functional Characteristics of Protein Kinases with Coupled Enzymatic Assay,” FEBS Letters, 292 (1991), pp. 69-72). Enzyme activity was measured in the presence of 200 mM HEPES (pH 7.5), 2 mM phosphoenolpyruvate, 0.3 mM NADH, 20 mM MgCl2, 100 μM ATP, 5 mM DTT, 5.1 or 25 mM poly (Glu,Tyr) 4:1 for P-FGF or P-LCK assays, respectively, and 15 units/mL each of pyruvate kinase and lactate dehydrogenase. Phosphorylated FGF receptor kinase was present at 100 nM and phosphorylated LCK kinase was present at 50 nM. Assays were performed under initial rate conditions at 37° C., and rates were corrected for any background rate measured in the absence of enzyme. Percent inhibition was calculated relative to control enzyme assayed in the presence of 2% (v/v) DMSO.

[2] = biological target: T4, phosphorylated LCK kinase (Homo sapiens, UniProt P06239, C224D/P223M); assay: Inhibition of phosphorylated LCK tyrosine kinase activity (coupled spectrophotometric assay); type: biochemical; conditions: read-out: P-LCK % Inhibition at 1 μM
T4 construct: starting from amino acid 223 to the end of the protein at amino acid 509; made in house; host or cells: insect cells
T4 sequence (P06239 223-509 P223M/C224D): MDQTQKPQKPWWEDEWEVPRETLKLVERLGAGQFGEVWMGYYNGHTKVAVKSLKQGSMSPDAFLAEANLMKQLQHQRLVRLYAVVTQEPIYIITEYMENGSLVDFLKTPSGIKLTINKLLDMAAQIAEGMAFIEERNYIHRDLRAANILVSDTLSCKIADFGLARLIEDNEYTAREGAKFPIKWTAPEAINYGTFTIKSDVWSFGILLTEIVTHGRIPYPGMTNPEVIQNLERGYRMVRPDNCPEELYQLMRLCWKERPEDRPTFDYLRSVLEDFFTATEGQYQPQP
Procedure: as §1, §2

[3] = biological target: T5, human CDK1 (cdc2)/cyclin B (Homo sapiens, UniProt P06493); assay: Inhibition of CDK1 (cdc2)/cyclin B histone H1 kinase activity; type: biochemical; conditions: histone H1 substrate
T5 construct: purchased New England Biolabs (Beverly, Mass.)
T5 sequence (P06493 whole entry): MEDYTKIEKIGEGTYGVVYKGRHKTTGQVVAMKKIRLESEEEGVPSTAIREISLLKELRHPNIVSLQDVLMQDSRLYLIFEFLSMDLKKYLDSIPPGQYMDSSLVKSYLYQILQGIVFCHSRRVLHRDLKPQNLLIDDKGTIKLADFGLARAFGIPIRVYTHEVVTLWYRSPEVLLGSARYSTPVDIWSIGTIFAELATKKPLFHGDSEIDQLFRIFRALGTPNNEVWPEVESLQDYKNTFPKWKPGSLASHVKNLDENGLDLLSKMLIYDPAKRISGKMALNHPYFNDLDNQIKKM
T5 sequence (P14635 whole entry partner): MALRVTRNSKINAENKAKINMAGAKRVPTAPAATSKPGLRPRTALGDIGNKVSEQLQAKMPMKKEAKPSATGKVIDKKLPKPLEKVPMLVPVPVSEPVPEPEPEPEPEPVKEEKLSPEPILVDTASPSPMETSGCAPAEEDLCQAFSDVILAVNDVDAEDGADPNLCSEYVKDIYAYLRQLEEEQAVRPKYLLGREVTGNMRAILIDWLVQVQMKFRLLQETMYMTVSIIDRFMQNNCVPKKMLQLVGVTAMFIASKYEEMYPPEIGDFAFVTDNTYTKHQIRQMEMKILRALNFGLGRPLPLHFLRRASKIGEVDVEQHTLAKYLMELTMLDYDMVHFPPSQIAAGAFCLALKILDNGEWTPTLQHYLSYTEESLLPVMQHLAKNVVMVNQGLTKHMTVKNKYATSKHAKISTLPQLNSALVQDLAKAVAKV
Procedure: Cyclin-dependent kinase activity was measured by quantifying the enzyme-catalyzed, time-dependent incorporation of radioactive phosphate from [^32P]ATP or [^33P]ATP into a protein substrate. Unless noted otherwise, assays were performed in 96-well plates in a total volume of 50 μL, in the presence of 10 mM HEPES (N-[2-hydroxyethyl]piperazine-N′-[2-ethanesulfonic acid]) (pH 7.4), 10 mM MgCl2, 25 μM adenosine triphosphate (ATP), 1 mg/mL ovalbumin, 5 μg/mL leupeptin, 1 mM dithiothreitol, 10 mM β-glycerophosphate, 0.1 mM sodium vanadate, 1 mM sodium fluoride, 2.5 mM ethylene glycol-bis(β-aminoethyl ether)-N,N,N′N′-tetraacetic acid (EGTA), 2% (v/v) dimethylsulfoxide, and 0.03-0.4 μCi [^32/33P]ATP per reaction. Reactions were initiated with enzyme, incubated at 30° C., and terminated after 20 minutes by the addition of ethylenediaminetetraacetic acid (EDTA) to 250 mM. The phosphorylated substrate was then captured on a nitrocellulose or phosphocellulose membrane using a 96-well filtration manifold, and unincorporated radioactivity was removed by repeated washing with 0.85% phosphoric acid. Radioactivity was quantified by exposing the dried membranes to a phosphorimager.
Compounds from combinatorial libraries were screened from 96-well plates for % inhibition of CDK activity at 30 nM theoretical compound concentration. Inhibition was measured relative to control wells that contained all reaction components including 2% (v/v) DMSO but no compound, after subtraction of background radioactivity measured in the absence of enzyme. Apparent Ki values of discrete compounds were measured by assaying enzyme activity in the presence of different inhibitor compound concentrations and subtracting the background radioactivity measured in the absence of enzyme. The kinetic parameters (kcat, Km for ATP) were measured for each enzyme under the usual assay conditions by determining the dependence of initial rates on ATP concentration. Inhibition data were fit to an equation for competitive inhibition using Kaleidagraph (Synergy Software), or were fit to an equation for competitive tight-binding inhibition using the software KineTic (BioKin, Ltd.).
The complex of human CDK1 (cdc2) and cyclin B was purchased from New England Biolabs (Beverly, Mass.). Alternatively, a CDK1/glutathione-S-transferase-cyclin B1 complex was purified using glutathione affinity chromatography from insect cells that had been co-infected with the corresponding baculovirus expression vectors. The assay was executed as described above at 30° C. using 2.5 units of cdc2/cyclin B, 10 μg Histone H1 protein, and 0.1-0.3 μCi [^32/33P]ATP per assay. Phosphorylated histone substrate was captured by microfiltration on a phosphocellulose P81 membrane and quantified using a phosphorimager as described above. Ki values were measured using the described curve-fitting programs.

| Structure (SMILES) | melting point | Ki (CDK2/cyclin A) | Ki (human CDK4/cyclin D3) | IC50 (HCT-116 cell line) | inhibition at 1 µM [1] | inhibition at 1 µM [2] | Ki [3] |
| --- | --- | --- | --- | --- | --- | --- | --- |
| CN(C)CC(C)(C)NC(=O)c1ccc(Nc2nc(N)c(C(=O)c3c(F)cccc3F)s2)cc1 (as salt: hydrochloride) [Example A61, 4-[4-Amino-5-(2,6-difluoro-benzoyl)-thiazol-2-ylamino]-N-(2-dimethylamino-1,1-dimethyl-ethyl)-benzamide Dihydrochloride] | 275 to 290 °C (dec.) |  |  |  |  |  |  |
| Nc1nc(Nc2ccc(C(=O)NCCNc3ccccc3)cc2)sc1C(=O)c1c(F)cccc1F [Example A2, 4-[4-Amino-5-(2,6-difluoro-benzoyl)-thiazol-2-ylamino]-N-(2-phenylamino-ethyl)-benzamide] |  | 0.0032 µM | 0.008 µM | 0.14 µM | 8% | 4% |  |
| CN(C)CCN(C)C(=O)c1ccc(Nc2nc(N)c(C(=O)c3c(F)cccc3F)s2)cc1 [Example A3, 4-[4-Amino-5-(2,6-difluoro-benzoyl)-thiazol-2-ylamino]-N-(2-dimethylamino-ethyl)-N-methyl-benzamide] |  | 0.17 µM | 0.021 µM | 0.75 µM | 7% | 5% |  |
| CC(CCCC(C)(C)O)NC(=O)c1ccc(Nc2nc(N)c(C(=O)c3c(F)cccc3F)s2)cc1 (stereo not drawn) [Example A5, 4-[4-Amino-5-(2,6-difluoro-benzoyl)-thiazol-2-ylamino]-N-(6-hydroxy-6-methyl-hept-2-yl)-benzamide] |  | 0.072 µM | 0.066 µM | 1.2 µM | 5% | 3% |  |
| Nc1nc(Nc2ccc(C(=O)Nc3ccccc3)cc2)sc1C(=O)c1c(F)cccc1F [Example A9, 4-[4-Amino-5-(2,6-difluoro-benzoyl)-thiazol-2-ylamino]-N-phenyl-benzamide] |  | 0.027 µM | 0.012 µM | 0.14 µM | 5% | 5% |  |
| CCN1CCCC1CNC(=O)c1ccc(Nc2nc(N)c(C(=O)c3c(F)cccc3F)s2)cc1 (stereo not drawn) [Example A11, 4-[4-Amino-5-(2,6-difluoro-benzoyl)-2-ylamino]-N-(1-ethyl-pyrrolidin-2RS-ylmethyl)-benzamide] |  | 0.082 µM | 0.014 µM | 0.17 µM |  | 6% |  |
| Nc1nc(Nc2ccc(C(=O)Nc3ccc4c(c3)OCCO4)cc2)sc1C(=O)c1c(F)cccc1F [Example A17, 4-[4-Amino-5-(2,6-difluoro-benzoyl)-thiazol-2-ylamino]-N-(2,3-dihydro-benzo[1,4]dioxin-6-yl)-benzamide] |  | 0.051 µM | 0.026 µM | 0.1 µM | 0% | 0% |  |
| CC(=O)N(C)c1ccc(NC(=O)c2ccc(Nc3nc(N)c(C(=O)c4c(F)cccc4F)s3)cc2)cc1 [Example A25] |  | 0.062 µM | 0.013 µM | 0.094 µM | 0% | 0% |  |
| C[C@H](CNC(=O)c1ccc(Nc2nc(N)c(C(=O)c3c(F)cccc3F)s2)cc1)N(C)C [Example A44, 4-[4-Amino-5-(2,6-difluoro-benzoyl)-thiazol-2-ylamino]-N-(2R-dimethylamino-propyl)-benzamide] |  | 0.12 µM | 0.01 µM | 0.13 µM |  |  | 0.072 µM |
